In patent US9789046B2, “Water-based resin nail polish” (LES FINS NETWORK TECHNOLOGY CO., LTD., priority 2015, dated 2017):
≈ marks a conversion by molar mass, not a printed value.

Columns and labels:
Assay in all cases: Antifungal activity experiment, 96-pore plate, MTT, OD 570 nm
Type in all cases: cell-based
Conditions in all cases: MH medium, 37° C., 24 h, read-out: semi-inhibition rate MIC50
Trichophyton gypsum = system: Trichophyton gypsum
Description: (§1) Bacteria (Trichophyton rubrum, Trichophyton gypsum and flocculent trichomementagrophytes) are suspended in an MH culture medium, the dispersion concentration is about 10^5 cfu·mL−1, the bacterial solution is added onto 96-pore plate (100 μL of the bacterial solution is added into each pore), the culture medium is used as a blank control, DMSO is used for substituting a test material as a negative control, and itraconazole (Xian-Janssen Pharmaceutical Ltd.) is used as a positive control. […] The 96-pore plate is placed into an incubator at 37° C. to be cultured for 24 h, then 25 μL of the prepared solution containing 4 mg of PBS of MTT for each mL is added into each hole, and the solution is cultured for 4 h under a same condition, 100 μL of SDS lysis solution (including 95 mL of triple-distilled, 10 g of SDS, 5 mL of isopropyl alcohol and 0.1 mL of concentrated hydrochloric acid) is added into each pore and then is cultured for 12 h. An enzyme labeling instrument is used for determining an OD value at 570 nm, and a percent inhibition rate is calculated according to the formula equation: […]

[1] = system: flocculent trichomementagrophytes
Description: as §1

Trichophyton rubrum = system: Trichophyton rubrum
Description: as §1

SMILES	MIC50 (Trichophyton gypsum)	MIC50 [1]	MIC50 (Trichophyton rubrum)
CCC(C)n1ncn(-c2ccc(N3CCN(c4ccc(OCC5COC(Cn6cncn6)(c6ccc(Cl)cc6Cl)O5)cc4)CC3)cc2)c1=O (stereo not drawn) [itraconazole]	0.7 µg/mL (≈ 0.992 µM)	0.65 µg/mL (≈ 0.921 µM)	0.63 µg/mL (≈ 0.893 µM)
COc1ccc(-c2cc(=O)c3cc(O)c(OC)c4c3n2OC2OC(C)=C(O)C=C2C4)cc1 (stereo not drawn) [compound of formula I]	0.6 µg/mL	0.82 µg/mL	0.63 µg/mL
